Reference: PubChem BioAssay AID256 (DTP/NCI, 2004)
Several values for one entry are separate records, joined by “and”; a condition that tells them apart may be missing. Equal entries are not always repeated. Inconclusive results and toxic doses are left out. The calls were made as follows: active = survival T/C of 150% or more; inactive = T/C below 125% in these data.

Test system: CD2F1 mice, L1210 leukemia ip, survival T/C
Assay: NCI In Vivo Anticancer Drug Screen. Data for tumor model L1210 Leukemia (intraperitoneal) in CD2F1 (CDF1) mice
Settings: higher = longer survival
Method in brief: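 Compound-dosed mice with transplantable tumor versus matched vehicle controls; endpoint ratio T/C reported.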

[1] = endpoint: mean survival time, dose: 100.0 mg/kg/injection, schedule: Q04DX002 (ip), vehicle: saline with Tween-80
[2] = endpoint: mean survival time, dose: 100.0 mg/kg/injection, schedule: Q04DX003 (ip), vehicle: saline with Tween-80
[3] = endpoint: mean survival time, dose: 200.0 mg/kg/injection, schedule: Q04DX003 (ip), vehicle: saline with Tween-80
[4] = endpoint: mean survival time, dose: 400.0 mg/kg/injection, schedule: Q04DX003 (ip), vehicle: saline with Tween-80
[5] = endpoint: mean survival time, dose: 100.0 mg/kg/injection, schedule: Q01DX009 (ip), vehicle: saline with Tween-80
[6] = endpoint: mean survival time, dose: 200.0 mg/kg/injection, schedule: Q01DX009 (ip), vehicle: saline with Tween-80
[7] = endpoint: mean survival time, dose: 400.0 mg/kg/injection, schedule: Q01DX009 (ip), vehicle: saline with Tween-80
[8] = endpoint: mean survival time, dose: 50.0 mg/kg/injection, schedule: Q01DX009 (ip), vehicle: saline with Tween-80
[9] = endpoint: mean survival time, dose: 100.0 mg/kg/injection, schedule: Q01DX001 (ip), vehicle: saline with Tween-80
[10] = endpoint: mean survival time, dose: 200.0 mg/kg/injection, schedule: Q01DX001 (ip), vehicle: saline with Tween-80
[11] = endpoint: mean survival time, dose: 75.0 mg/kg/injection, schedule: Q01DX001 (ip), vehicle: saline
[12] = endpoint: mean survival time, dose: 150.0 mg/kg/injection, schedule: Q01DX001 (ip), vehicle: saline
[13] = endpoint: mean survival time, dose: 300.0 mg/kg/injection, schedule: Q01DX001 (ip), vehicle: saline

Measured: T/C

NS(=O)(=O)c1ccc(NC(=O)/C=C/C(=O)O)cc1
inactive: endpoint: mean survival time, dose: 100.0 mg/kg/injection, schedule: Q04DX003 (ip), vehicle: saline 101 % of control | endpoint: mean survival time, dose: 200.0 mg/kg/injection, schedule: Q04DX003 (ip), vehicle: saline 97 % of control | endpoint: mean survival time, dose: 400.0 mg/kg/injection, schedule: Q04DX003 (ip), vehicle: saline 97 % of control

CC(C)C(=O)C(C)(C)c1nc2ccccc2[nH]1
inactive: [1] 106 % of control | endpoint: mean survival time, dose: 200.0 mg/kg/injection, schedule: Q04DX002 (ip), vehicle: saline with Tween-80 98 % of control | endpoint: mean survival time, dose: 400.0 mg/kg/injection, schedule: Q04DX002 (ip), vehicle: saline with Tween-80 87 % of control

O=c1nc(N2CCCC2)ccn1C1OC(CO)C(O)C1O (stereo unspecified)
inactive: endpoint: median survival time, dose: 12.5 mg/kg/injection, schedule: Q01DX005 (ip), vehicle: water 100 % of control | endpoint: median survival time, dose: 25.0 mg/kg/injection, schedule: Q01DX005 (ip), vehicle: water 101 % of control | endpoint: median survival time, dose: 50.0 mg/kg/injection, schedule: Q01DX005 (ip), vehicle: water 108 % of control | endpoint: median survival time, dose: 100.0 mg/kg/injection, schedule: Q01DX005 (ip), vehicle: water 101 % of control | endpoint: median survival time, dose: 200.0 mg/kg/injection, schedule: Q01DX005 (ip), vehicle: water 104 % of control

O=C(O)c1cccc2[nH]c(=O)oc(=O)c12
inactive: [2] 103 % of control | [3] 95 % of control | [4] 93 % of control

COc1ccc2nc3c(C)c4ccn(O)cc4c(C)c3c2c1
inactive: endpoint: mean survival time, dose: 25.0 mg/kg/injection, schedule: Q04DX003 (ip), vehicle: water 106 % of control | endpoint: mean survival time, dose: 50.0 mg/kg/injection, schedule: Q04DX003 (ip), vehicle: water 111 % of control | endpoint: mean survival time, dose: 100.0 mg/kg/injection, schedule: Q04DX003 (ip), vehicle: water 114 % of control | endpoint: mean survival time, dose: 178.0 mg/kg/injection, schedule: Q04DX003 (ip), vehicle: other 105 % of control | endpoint: mean survival time, dose: 266.0 mg/kg/injection, schedule: Q04DX003 (ip), vehicle: other 103 % of control | endpoint: mean survival time, dose: 400.0 mg/kg/injection, schedule: Q04DX003 (ip), vehicle: other 102 % of control | endpoint: mean survival time, dose: 600.0 mg/kg/injection, schedule: Q04DX003 (ip), vehicle: other 103 % of control

OCCc1cc[nH]c1
inactive: [5] 104 % of control | [2] 95 % of control | [6] 101 % of control | [3] 97 % of control | [7] 113 % of control | [4] 97 % of control

CC(=O)CC(=O)Nc1cccc(Br)c1
inactive: [5] 98 % of control | [6] 101 % of control | [7] 101 % of control

CN(C)CCOc1ccccc1Cc1ccccc1
inactive: [8] 104 % of control | [5] 119 % of control | [2] 98 % of control | [6] 107 % of control | [3] 97 % of control

COc1ccc(OC)c(C2(O)C=C(Cl)C(=O)C=C2Cl)c1 (stereo unspecified)
inactive: [9] 101 % of control | [10] 97 % of control

COc1cccc2c1CCC1=C2CC=C2CC3(CCC21C)OCCO3 (stereo unspecified)
inactive: endpoint: mean survival time, dose: 100.0 mg/kg/injection, schedule: Q04DX003 (sc), vehicle: steriod suspending solution 91 % of control | endpoint: mean survival time, dose: 200.0 mg/kg/injection, schedule: Q04DX003 (sc), vehicle: steriod suspending solution 96 % of control | endpoint: mean survival time, dose: 400.0 mg/kg/injection, schedule: Q04DX003 (sc), vehicle: steriod suspending solution 97 % of control

Cc1nc(N)[nH]c(=O)c1NC(=O)c1ccccc1N
inactive: [9] 94 % of control | [10] 87 % of control | endpoint: mean survival time, dose: 400.0 mg/kg/injection, schedule: Q01DX001 (ip), vehicle: saline with Tween-80 89 % of control

CNC1C(CO)OC(n2cnc3c(N)ncnc32)C1O (stereo unspecified)
inactive: [11] 106 % of control | [12] 103 % of control | [13] 109 % of control

COC(=O)CCCNC(C)C
inactive: endpoint: mean survival time, dose: 12.5 mg/kg/injection, schedule: Q01DX009 (ip), vehicle: water 101 % of control | endpoint: mean survival time, dose: 25.0 mg/kg/injection, schedule: Q01DX009 (ip), vehicle: water 95 % of control | endpoint: mean survival time, dose: 50.0 mg/kg/injection, schedule: Q01DX009 (ip), vehicle: water 102 % of control | endpoint: mean survival time, dose: 100.0 mg/kg/injection, schedule: Q01DX009 (ip), vehicle: water 95 % of control | endpoint: mean survival time, dose: 200.0 mg/kg/injection, schedule: Q01DX009 (ip), vehicle: water 102 % of control

COC(=O)c1ccc(Cl)nc1
inactive: endpoint: mean survival time, dose: 75.0 mg/kg/injection, schedule: Q04DX003 (ip), vehicle: saline with Tween-80 106 % of control | [5] 98 % of control | endpoint: mean survival time, dose: 150.0 mg/kg/injection, schedule: Q04DX003 (ip), vehicle: saline with Tween-80 106 % of control | [6] 97 % of control | endpoint: mean survival time, dose: 300.0 mg/kg/injection, schedule: Q04DX003 (ip), vehicle: saline with Tween-80 100 % of control | [7] 87 % of control

CN(C)/N=C(\CBr)c1ccc(Br)cc1
inactive: endpoint: mean survival time, dose: 100.0 mg/kg/injection, schedule: Q01DX001 (ip), vehicle: saline 103 % of control | endpoint: mean survival time, dose: 200.0 mg/kg/injection, schedule: Q01DX001 (ip), vehicle: saline 100 % of control

Cc1ccoc1
inactive: endpoint: median survival time, dose: 8.3 mg/kg/injection, schedule: Q03HX015 (ip), vehicle: saline with Tween-80 101 % of control | endpoint: median survival time, dose: 16.6 mg/kg/injection, schedule: Q03HX015 (ip), vehicle: saline with Tween-80 103 % of control | endpoint: median survival time, dose: 33.3 mg/kg/injection, schedule: Q03HX015 (ip), vehicle: saline with Tween-80 117 % of control | endpoint: median survival time, dose: 66.6 mg/kg/injection, schedule: Q03HX015 (ip), vehicle: saline with Tween-80 124 % of control

OCC(O)C(O)C(O)C(/C=N/Nc1ccccc1)=N\Nc1ccccc1 (stereo unspecified)
inactive: [11] 95 % of control | [12] 100 % of control | [13] 97 % of control

CCCCN(CCCC)CC(O)c1ccccc1 (stereo unspecified)
inactive: [1] 88 % of control

CC(=O)N(C)O
active: endpoint: median survival time, dose: 200.0 mg/kg/injection, schedule: Q01DX009 (ip), vehicle: saline with Tween-80 156 % of control | endpoint: median survival time, dose: 400.0 mg/kg/injection, schedule: Q01DX009 (ip), vehicle: saline with Tween-80 176 % of control
inactive: endpoint: median survival time, dose: 12.5 mg/kg/injection, schedule: Q01DX009 (ip), vehicle: saline with Tween-80 102 % of control | endpoint: median survival time, dose: 25.0 mg/kg/injection, schedule: Q01DX009 (ip), vehicle: saline with Tween-80 102 % of control and 103 % of control | endpoint: median survival time, dose: 50.0 mg/kg/injection, schedule: Q01DX009 (ip), vehicle: saline with Tween-80 102 % of control and 103 % of control | endpoint: median survival time, dose: 100.0 mg/kg/injection, schedule: Q01DX009 (ip), vehicle: saline with Tween-80 106 % of control

O=C(NC1CCCCC1)NC1CCCCC1
inactive: [2] 100 % of control | [3] 98 % of control | [4] 93 % of control

CCCC[N+](CCCC)(CCCC)CCCC.[O-][PH+](O)O[PH+]([O-])O.[O-][PH+](O)O[PH+]([O-])O.[O-][PH+](O)O[PH+]([O-])O.[O-][PH+](O)O[PH+]([O-])O.[Pt+2].[Pt+2]
inactive: endpoint: median survival time, dose: 10.0 mg/kg/injection, schedule: Q04DX003 (ip), vehicle: water 100 % of control | endpoint: median survival time, dose: 40.0 mg/kg/injection, schedule: Q04DX003 (ip), vehicle: water 105 % of control

O=S(CC(O)c1ccccc1)c1ccccc1 (stereo unspecified)
inactive: [2] 93 % of control | [3] 102 % of control

CC(C)S(=O)(=O)/C(Cl)=C(/Cl)C(Cl)=C(Cl)Cl
inactive: [8] 106 % of control

CC[N-]c1nncs1.CC[N-]c1nncs1.CC[N-]c1nncs1.CC[N-]c1nncs1.[Cl][Rh][Cl]
inactive: endpoint: mean survival time, dose: 3.13 mg/kg/injection, schedule: Q04DX003 (ip), vehicle: distilled water + Tween-80 104 % of control | endpoint: mean survival time, dose: 6.25 mg/kg/injection, schedule: Q04DX003 (ip), vehicle: distilled water + Tween-80 98 % of control | endpoint: mean survival time, dose: 12.5 mg/kg/injection, schedule: Q04DX003 (ip), vehicle: distilled water + Tween-80 96 % of control | endpoint: mean survival time, dose: 25.0 mg/kg/injection, schedule: Q04DX003 (ip), vehicle: distilled water + Tween-80 90 % of control | endpoint: mean survival time, dose: 50.0 mg/kg/injection, schedule: Q04DX003 (ip), vehicle: distilled water + Tween-80 98 % of control

COC(=O)CSC#N
inactive: endpoint: mean survival time, dose: 10.0 mg/kg/injection, schedule: Q01DX001 (ip), vehicle: saline 111 % of control | endpoint: mean survival time, dose: 20.0 mg/kg/injection, schedule: Q01DX001 (ip), vehicle: saline 107 % of control

Nc1ccc(S(=O)(=O)O)cc1[N+](=O)[O-]
inactive: endpoint: mean survival time, dose: 100.0 mg/kg/injection, schedule: Q01DX009 (ip), vehicle: saline 92 % of control | endpoint: mean survival time, dose: 200.0 mg/kg/injection, schedule: Q01DX009 (ip), vehicle: saline 97 % of control | endpoint: mean survival time, dose: 400.0 mg/kg/injection, schedule: Q01DX009 (ip), vehicle: saline 101 % of control
